Results published in patent US10597388B2, “Pyridazinone herbicides” (FMC CORPORATION, priority 2014, dated 2020).

Key:
Experiment in all cases: Test D controlled growth environment herbicide test, pre- and postemergence
Type in all cases: in vivo
[1] = tested on: barley, spring (spring barley, Hordeum vulgare)
Method in brief: (§1)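 Species sown in silt loam and sprayed preemergence, or grown in peat-based medium to 2–18 cm (1- to 4-leaf stage) and sprayed postemergence, with compounds in non-phytotoxic solvent plus surfactant. Visual injury scored versus controls after 14–21 d in a controlled environment, 0 (no effect) to 100 (complete control).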

[2] = tested on: chamomile (scentless chamomile, Matricaria inodora)
Method in brief: as §1

[3] = tested on: buckwheat, wild (wild buckwheat, Polygonum convolvulus)
Method in brief: as §1

[4] = tested on: radish, wild (wild radish, Raphanus raphanistrum)
Method in brief: as §1

[5] = tested on: oat, wild (wild oat, Avena fatua)
Method in brief: as §1

[6] = tested on: speedwell (bird's-eye speedwell, Veronica persica)
Method in brief: as §1

[7] = tested on: mustard, wild (wild mustard, Sinapis arvensis)
Method in brief: as §1

[8] = tested on: barley, winter (winter barley, Hordeum vulgare)
Method in brief: as §1

[9] = tested on: field poppy (Papaver rhoeas)
Method in brief: as §1

[10] = tested on: galium (catchweed bedstraw, Galium aparine)
Method in brief: as §1

[11] = tested on: oilseed rape (Brassica napus)
Method in brief: as §1

[12] = tested on: bluegrass (annual bluegrass, Poa annua)
Method in brief: as §1

[13] = tested on: pigweed (Amaranthus retroflexus)
Method in brief: as §1

[14] = Postemergence, 31 g ai/ha, scale 0 to 100 (0 no effect, 100 complete control)
[15] = Postemergence, 125 g ai/ha, visual rating on scale 0 (no effect) to 100 (complete control), 14 to 21 d
[16] = Postemergence, 250 g ai/ha, scale 0 to 100 (0 no effect, 100 complete control)
[17] = Preemergence, 62 g ai/ha, scale 0 to 100 (0 no effect, 100 complete control)
[18] = Preemergence, 125 g ai/ha, scale 0 to 100 (0 no effect, 100 complete control)
[19] = Preemergence, 250 g ai/ha, scale 0 to 100 (0 no effect, 100 complete control)
[20] = postemergence, 62 g ai/ha, scale 0 to 100, 0 no effect, 100 complete control

## COC(=O)Oc1c(C)nn(C)c(=O)c1-c1c(C)sc2c(C)cc(C)cc12 [Compound 81]
[1]; [14]
  Barley, Spring plant response rating: 0
[1]; [15]
  Plant response rating, Barley, Spring: 0
[1]; [16]
  Plant response rating, Barley, Spring: 10
[1]; Preemergence, 31 g ai/ha
  Plant response rating (scale of 0 to 100), Barley, Spring: 0
[1]; [17]
  Plant response rating, Barley, Spring: 0
[1]; [18]
  Plant response rating, Barley, Spring: 0
[1]; [19]
  Plant response rating, Barley, Spring: 5
[1]; [20]
  Plant response rating, Barley, Spring: 0
[2]; [14]
  Chamomile plant response rating: 100
[2]; [15]
  Plant response rating, Chamomile: 100
[2]; [16]
  Plant response rating, Chamomile: 100
[2]; [20]
  Plant response rating, Chamomile: 100
[3]; [14]
  Buckwheat, Wild plant response rating: 100
[3]; [15]
  Plant response rating, Buckwheat, Wild: 100
[3]; [16]
  Plant response rating, Buckwheat, Wild: 100
[3]; Preemergence, 31 g ai/ha
  Plant response rating (scale of 0 to 100), Buckwheat, Wild: 15
[3]; [17]
  Plant response rating, Buckwheat, Wild: 15
[3]; [18]
  Plant response rating, Buckwheat, Wild: 0
[3]; [19]
  Plant response rating, Buckwheat, Wild: 15
[3]; [20]
  Plant response rating, Buckwheat, Wild: 100
[4]; [14]
  Radish, Wild plant response rating: 75
[4]; [15]
  Plant response rating, Radish, Wild: 95
[4]; [16]
  Plant response rating, Radish, Wild: 100
[4]; Preemergence, 31 g ai/ha
  Plant response rating (scale of 0 to 100), Radish, Wild: 0
[4]; [17]
  Plant response rating, Radish, Wild: 50
[4]; [20]
  Plant response rating, Radish, Wild: 90
[5]; [14]
  Oat, Wild plant response rating: 85
[5]; [15]
  Plant response rating, Oat, Wild: 95
[5]; [16]
  Plant response rating, Oat, Wild: 98
[5]; Preemergence, 31 g ai/ha
  Plant response rating (scale of 0 to 100), Oat, Wild: 85
[5]; [17]
  Plant response rating, Oat, Wild: 85
[5]; [18]
  Plant response rating, Oat, Wild: 85
[5]; [19]
  Plant response rating, Oat, Wild: 95
[5]; [20]
  Plant response rating, Oat, Wild: 90
[6]; [14]
  Speedwell plant response rating: 75
[6]; [15]
  Plant response rating, Speedwell: 95
[6]; [16]
  Plant response rating, Speedwell: 100
[6]; Preemergence, 31 g ai/ha
  Plant response rating (scale of 0 to 100), Speedwell: 55
[6]; [17]
  Plant response rating, Speedwell: 60
[6]; [18]
  Plant response rating, Speedwell: 100
[6]; [19]
  Plant response rating, Speedwell: 100
[6]; [20]
  Plant response rating, Speedwell: 80
[7]; [14]
  Mustard, Wild plant response rating: 50
[7]; [15]
  Plant response rating, Mustard, Wild: 60
[7]; [16]
  Plant response rating, Mustard, Wild: 80
[7]; Preemergence, 31 g ai/ha
  Plant response rating (scale of 0 to 100), Mustard, Wild: 0
[7]; [17]
  Plant response rating, Mustard, Wild: 0
[7]; [18]
  Plant response rating, Mustard, Wild: 0
[7]; [19]
  Plant response rating, Mustard, Wild: 50
[7]; [20]
  Plant response rating, Mustard, Wild: 60
[8]; [14]
  Barley, Winter plant response rating: 0
[8]; [15]
  Plant response rating, Barley, Winter: 0
[8]; [16]
  Plant response rating, Barley, Winter: 10
[8]; Preemergence, 31 g ai/ha
  Plant response rating (scale of 0 to 100), Barley, Winter: 0
[8]; [17]
  Plant response rating, Barley, Winter: 0
[8]; [18]
  Plant response rating, Barley, Winter: 45
[8]; [19]
  Plant response rating, Barley, Winter: 45
[8]; [20]
  Plant response rating, Barley, Winter: 0
[9]; [14]
  Field Poppy plant response rating: 100
[9]; [15]
  Plant response rating, Field Poppy: 100
[9]; [16]
  Plant response rating, Field Poppy: 100
[9]; Preemergence, 31 g ai/ha
  Plant response rating (scale of 0 to 100), Field Poppy: 100
[9]; [17]
  Plant response rating, Field Poppy: 100
[9]; [18]
  Plant response rating, Field Poppy: 100
[9]; [19]
  Plant response rating, Field Poppy: 100
[9]; [20]
  Plant response rating, Field Poppy: 100
[10]; [14]
  Galium plant response rating: 100
[10]; [15]
  Plant response rating, Galium: 100
[10]; [16]
  Plant response rating, Galium: 100
[10]; Preemergence, 31 g ai/ha
  Plant response rating (scale of 0 to 100), Galium: 25
[10]; [17]
  Plant response rating, Galium: 65
[10]; [18]
  Plant response rating, Galium: 85
[10]; [19]
  Plant response rating, Galium: 95
[10]; [20]
  Plant response rating, Galium: 100
[11]; [14]
  Oilseed Rape plant response rating: 70
[11]; [15]
  Plant response rating, Oilseed Rape: 75
[11]; [16]
  Plant response rating, Oilseed Rape: 85
[11]; Preemergence, 31 g ai/ha
  Plant response rating (scale of 0 to 100), Oilseed Rape: 0
[11]; [17]
  Plant response rating, Oilseed Rape: 0
[11]; [18]
  Plant response rating, Oilseed Rape: 50
[11]; [19]
  Plant response rating, Oilseed Rape: 100
[11]; [20]
  Plant response rating, Oilseed Rape: 70
[12]; [14]
  Bluegrass plant response rating: 5
[12]; [15]
  Plant response rating, Bluegrass: 30
[12]; [16]
  Plant response rating, Bluegrass: 40
[12]; Preemergence, 31 g ai/ha
  Plant response rating (scale of 0 to 100), Bluegrass: 0
[12]; [17]
  Plant response rating, Bluegrass: 10
[12]; [18]
  Plant response rating, Bluegrass: 20
[12]; [19]
  Plant response rating, Bluegrass: 60
[12]; [20]
  Plant response rating, Bluegrass: 20
[13]; [14]
  Pigweed plant response rating: 100
[13]; [15]
  Plant response rating, Pigweed: 100
[13]; [16]
  Plant response rating, Pigweed: 100
[13]; Preemergence, 31 g ai/ha
  Plant response rating (scale of 0 to 100), Pigweed: 95
[13]; [17]
  Plant response rating, Pigweed: 100
[13]; [18]
  Plant response rating, Pigweed: 100
[13]; [19]
  Plant response rating, Pigweed: 100
[13]; [20]
  Plant response rating, Pigweed: 100
